From patent publication US20070060549A1, “COMBINATION THERAPIES EMPLOYING ACE INHIBITORS AND USES THEREOF FOR THE TREATMENT OF DIABETIC DISORDERS” (priority 2004, published 2007) come the findings set out here.

One data set concerns rat. The data set is described as follows: Acute toxicity evaluation of P5P in the rat. Format: in vivo. Conditions: doses up to 5 g/kg. The procedure: (§1) As a prelude to human clinical studies, the toxicology of P5P was assessed by conventional means using two animal species, rats and dogs. […] Long term studies, 13-week oral toxicity in dogs, and 26-week oral toxicity in rats, were completed.

Data set [1] deals with diabetic hypertensive patients. The data set is described as follows: Phase II clinical study of P5P: glycated hemoglobin (HbA1c). The format is in vivo, human. Conditions: patients with clinically elevated HbA1c at start; 250, 500, 750 mg P5P two weeks each, then 4-week washout. The procedure:
In a phase II clinical study, conducted in accordance with generally accepted clinical practice standards, diabetic hypertensive patients were treated with P5P. Glucose control was determined by measuring glycated hemoglobin levels (HbA1c). Four weeks prior to treatment, patients ceased all antihypertensive therapy. Following the washout period, baseline HbA1c measurements were taken. Patients were than treated with 250 mg, 500 mg, and 750 mg of P5P for two weeks at each dosage. P5P treatment was then discontinued for 4 weeks. Following the washout period, HbA1c measurements were taken.

Data set [2] deals with dogs. The data set can be described thus: Acute toxicity evaluation of P5P in dogs. Format: in vivo, dog. The conditions noted are these: doses up to 100 mg/kg. The procedure: as §1
The subject of data set [3] is dogs. The data set is described as follows: 13-week oral toxicity in dogs. Format: in vivo. The conditions noted are these: 13-week dog study. Here is the method: as §1
The nature of data set [4]: Phase I pharmacokinetics of P5P. The conditions noted are these: Phase I dose levels; small numbers of subjects, large inter-subject variability. Format: in vivo, human. The procedure: (§2) In a Phase I single dose tolerance study, conducted in accordance with generally accepted clinical practice standards, groups of six patients were tested at 15 mg/kg, 30 mg/kg, and 60 mg/kg (enteric coated tablets). […] Four subjects in the 60 mg/kg dose group reported a total of 10 adverse events including diarrhea, bradycardia, bubbly stomach, flatulence, and headaches that were mild in severity.

Data set [5] concerns patients. The data set can be described thus: Phase I single dose tolerance study of P5P. Format: in vivo, human. The procedure:
as §2

For data set [6], the system named is rats. The data set is described as follows: 14-day oral administration of P5P to rats. Format: in vivo, rat. Conditions: orally 50 mg/kg for 14 days. The procedure: as §1
Data set [7] deals with rats. The data set can be described thus: 26-week oral toxicity in rats. The format is in vivo. Conditions: 26-week rat study. Here is the method:
as §1

Data set [8] has as its system patients. The data set is described as follows: Phase I multi-dose tolerance study of P5P. Format: in vivo, human.
Data set [9] deals with hypertensive patients with type 2 diabetes. The conditions noted are these: 8 weeks.
Experimental: Summary of Study Design—The phase II study was a randomized, parallel group, cross-over, double-blinded to study medication, placebo-controlled comparison of P5P BID at total daily doses of 100, 300 or 1000 mg alone and in combination with 20 mg lisinopril given once daily (QD). In order to protect against antihypertensive and metabolic carry-over effects of lisinopril, 160 patients were randomized in 2 different treatment sequences. Patients randomized in the first treatment sequence received an 8-week treatment with lisinopril 20 mg and P5P (or placebo) and then an 8-week treatment with P5P alone (or placebo). […]
Mean trough sitting and standing BP were measured at each visit. […]
Ambulatory blood pressure (ABP) was measured using a SpaceLabs Medical ABPM Monitor Model 90207 (SpaceLabs Medical Inc., Redmond, Wash.). […] Following the initiation of two manual readings, a third manual reading was initiated and began the 24-hour monitoring period. […] A manual reading was initiated at the end of the 24-hour period to ensure that there was at least one data point in the last hour of the 24-hour period. Subjects were instructed to initiate a manual reading should they be late for their scheduled clinic appointment to ensure that a reading in the last hour of the 24-hour period was not missed. On completion of the readings, the ABPM device was removed from the subject. […]

With `Cc1ncc(COP(=O)(O)O)c(C=O)c1O` [P5P, pyridoxal-5′-phosphate], the acute toxicity entry in the data set on rat and in the data set on dogs [2] was “no significant toxicity” in each case. The “reduction in HbA1c levels as compared to baseline” value in [1] is 5.4%. For the same compound, in the data set with dogs [3] (10 and 25 mg/kg), the drug related toxicities result is “no drug related toxicities were observed”. Further, the recovery entry with dogs [3] (50-60 mg/kg group, recovery phase) is on record as “recovered almost completely”. Also, the “findings in high dose group” value with dogs [3] (50-60 mg/kg, all other findings mild to moderate) is “anorexia and body weight loss”; in the data set with rats [7] (high dose group) it was “reversible reduction in body weight gain and increased incidence of stomach microulcers”. For the same compound, the dose-linearity of pharmacokinetics entry in data set [4] is “did not demonstrate dose-linearity”. The adverse events result with patients [5] (single dose 15 mg/kg, enteric coated tablets, six patients) is “No adverse events were reported”; with patients [5] (single dose 30 mg/kg, enteric coated tablets, six patients) it was “One subject in the 30 mg/kg dose group experienced events of dizziness and sleepiness”. For the same compound, the “subjects reporting adverse events” value with patients [5] (single dose 60 mg/kg, enteric coated tablets, six patients) is given as “Four”. The compound further had a total adverse events in the data set with patients [5] (single dose 60 mg/kg, diarrhea, bradycardia, bubbly stomach, flatulence, headaches, mild in severity) of 10. Moreover, in the data set on rats [6], the signs of toxicity entry is “no signs of toxicity”. The “findings of toxicological significance” value with rats [7] (any dose level (50, 100/175, 175/325 mg/kg)) is listed as “No findings of toxicological significance”. In addition, the tolerance entry is on record as “five of six patients treated with 30 mg/kg P5P tolerated the medication well” with patients [8] (multi-dose 30 mg/kg, one patient withdrew due to vomiting and diarrhea); “all 6 treated patients experiencing a variety of mild gastrointestinal symptoms” with patients [8] (multi-dose 60 mg/kg).
With `NCCCC[C@H](N[C@@H](CCc1ccccc1)C(=O)O)C(=O)N1CCC[C@H]1C(=O)O` [lisinopril], the “reduction in MDASBP from baseline” value in data set [9] (lisinopril 20 mg/dose and placebo, p=0.002) is listed as 7.5 mmHg. In addition, the “reduction in MDADBP from baseline” value in data set [9] (lisinopril 20 mg/dose plus placebo, p=0.005) is reported as 4.1 mmHg.
